Experimental data: patent publication US20150111896A1, “HEMATOPOIETIC PROTECTION AGAINST CHEMOTHERAPEUTIC COMPOUNDS USING SELECTIVE CYCLIN-DEPENDENT KINASE 4/6 INHIBITORS” (The University of North Carolina at Chapel Hill, priority 2008, published 2015)

Columns and labels:
[1] = tested on: telomerized human diploid fibroblast (tHDF) cells (HS68); assay: Cell cycle analysis (BrdU and propidium iodide, flow cytometry); assay type: cell-based; conditions: HS68 (CDK4/6-dependent), 24 hours treatment
Protocol: (§1) Cells were cultured in DMEM+10% FBS.
(§2) Cell cycle analysis: Cell cycle analysis was performed using BrdU and propidium iodide (both from BD Biosciences Pharmigen, San Jose, Calif., United States of America) following the manufacturer's protocol. Cells were treated for 24 hours with a test compound at a desired dose prior to 15 minutes BrdU pulse, cell harvesting, fixation, staining, and analysis by flow cytometry.
(§3) Histograms of dose-response curves of PD332991 and 2BrIC in HS68, WM2664 and A2058 cells were analyzed using Mod-Fit™ software from Verity Software House (Topsham, Me., United States of America).

[2] = tested on: human melanoma cells lacking INK4a/ARF (WM2664); assay: as above; assay type: cell-based; conditions: WM2664 (CDK4/6-dependent), 24 hours treatment
Protocol: as §1, §2, §3

[3] = tested on: mice exposed to chemotherapeutic agents; assay: Myelosuppression assay: weekly complete blood counts; assay type: in vivo; conditions: for protection of blood cell counts (platelets, hemoglobin, lymphocytes, granulocytes) from doxorubicin: 150 mg/kg oral gavage 1 hour before DOX 10 mg/kg i.p., repeated after 7 days, blood at fourteen days; for protection of blood cell counts (platelets, hemoglobin, lymphocytes, granulocytes) from carboplatin: 150 mg/kg oral gavage one hour before Carbo 100 mg/kg i.p., blood at seven day intervals
Protocol: PD0332991: In the carboplatin experiments, mice were treated with a single dose of PD0332991 150 mg/kg oral gavage or vehicle control followed by carboplatin 100 mg/kg IP injection. In the doxorubicin experiments, mice were treated with a PD0332991 150 mg/kg by oral gavage or vehicle control one hour before doxorubicin 10 mg/kg by IP injection on day 0 and then repeated on day 7.
2BrIC: Mice were treated with a single dose of carboplatin 100 mg/kg by IP injection and two doses of 2BrIC 150mg/kg oral gavage or vehicle control. Mice were pretreated with 2BrIC two hours prior to carboplatin administration and then readministered a second dose of 2BrIC at the time of the carboplatin injection.
Baseline complete blood count (CBC) analysis were performed on a subset of mice prior to drug administration. Following drug administration (chemotherapy+/−indicated CDK4/6 inhibitor or control), mice were monitored weekly for the presence of myelosuppression by CBC analysis. CBC analysis was performed using BD Microtainer tubes with K2E (K2EDTA), 40 μL of blood was collected by tail vein nick. Blood was analyzed using a HESKA CBC-Diff Veterinary Hematology System. CBC analysis included measurement of white blood cells, lymphocytes, granulocytes, monocytes, hematocrit, red blood cells, hemoglobin, platelets, and other common hematological parameters.

[4] = tested on: human melanoma cells lacking INK4a/ARF (WM2664); assay: Cell proliferation assay (WST-1 or CellTiter-Glo) after chemotherapeutic; conditions: WM2664 (CDK4/6-dependent); pretreatment prior to carboplatin, etoposide or doxorubicin
Protocol: (§6) In some embodiments, cell viability is assessed by performing a assay using 2-(4-iodophenyl)-3-(4-nitrophenyl)-5-(2,4-disulfophenyl)-2H-tetrazolium monosodium salt (WST-1), such as described further hereinbelow. In the WST-1 assay, WST-1 is cleaved by a mitochondrial reductase present in viable cells to form a colored product (i.e., formazan) that can be detected by measuring absorbance at a particular wavelength (e.g., 420-480 nm). […] The CellTiter-Glo® assay (CTG assay; Promega, Madison, Wis., United States of America) measures cell viability by measuring ATP concentration in cell lysate.
(§7) Cell lines: Telomerized human diploid fibroblast (tHDF) cells (HS68) were cultured in Dulbecco's Modified Eagle Medium (DMEM) +10% fetal bovine serum (FBS) with any additional compounds. The same conditions were used for A2058 and WM2664, human melanoma cell lines with known RB-pathway mutations: A2058 is RB-null, whereas WM2664 lacks INK4a/ARF. Thus, A2058 cells are CDK4/6-independent, while WM2664 cells are CDK4/6-dependent. Cells were cultured in DMEM+10% FBS.
(§8) Cell proliferation assays: Cell proliferation assays were performed by seeding 1×10^3 cells per well in a 96-well tissue culture plate in 100 μL of growth medium. Cells were treated as indicated with compound from Table 1 and doxorubicin, etoposide or carboplatin. Following treatment, cells were allowed to recover for 7 days in normal growth medium. At the end of the recovery period, cell number was quantified using the VVST-1 cell proliferation assay (TaKaRa Bio USA, Madison, Wis., United States of America) or the CellTiter-Glo® assay (CTG; Promega, Madison, Wis., United States of America). Data is presented as absorbance at 450 nm for the WST assays or Relative Light Units (RLU) for the CTG assays.

[5] = tested on: human patients with malignancies; conditions: serially treated; cited from earlier work
[6] = tested on: telomerized human diploid fibroblast (tHDF) cells (HS68); assay: Cell proliferation assay (WST-1 or CellTiter-Glo) after chemotherapeutic; conditions: HS68 (CDK4/6-dependent); pretreatment prior to carboplatin, etoposide or doxorubicin
Protocol: as §6, §7, §8

[7] = tested on: human RB-null melanoma cells (A2058); assay: as above; conditions: A2058 (CDK4/6-independent); pretreatment prior to carboplatin, etoposide or doxorubicin
Protocol: as §6, §7, §8

tumor bearing mice = conditions: serially treated; cited from earlier work
[8] = tested on: human RB-null melanoma cells (A2058); assay: γH2AX assay (DNA damage, flow cytometry); assay type: cell-based; conditions: 16 hours pretreatment, then 8 hours Carbo, Etop or Dox
Source text: (§4) Reduction in DNA damage effected by the test compound or maintenance of cell viability effected by the test compound in cells treated with cytotoxic compounds can be assessed in any suitable manner. For example, DNA damage in cell populations can be assessed by performing a gamma-H2AX assay as described further herein below. Mammalian cells respond to agents that introduce DNA double-stranded breaks with the immediate and substantial phosphorylation of histone H2AX. Thus, detection of the phosphorylated H2AX, termed gamma-H2AX (γH2AX), using commercially available antibodies, can serve as a measure of DNA damage in cells.
as §1
(§5) γH2AX assay: For γH2AX assay, cells were treated with a dose response of PD332991 or 2BrIC for 24 hours. Cells were fixed, permeabilized, and stained with anti-γH2AX antibody as per γH2AX Flow Kit (Millipore, Billerica, Mass., United States of America). γH2AX levels were assessed by flow cytometry.

[9] = tested on: telomerized human diploid fibroblast (tHDF) cells (HS68); assay: γH2AX assay (DNA damage, flow cytometry); assay type: cell-based; conditions: 16 hours pretreatment, then 8 hours Carbo, Etop or Dox
Source text: as §4, §1, §5

[10] = tested on: human melanoma cells lacking INK4a/ARF (WM2664); assay: γH2AX assay (DNA damage, flow cytometry); assay type: cell-based; conditions: 16 hours pretreatment
Source text: as §4, §1, §5

[11] = tested on: hematopoietic stem and progenitor cells (HSPC); assay: In vivo pharmacodynamic assay (BrdU incorporation, Ki67) in bone marrow; parameters: species or system mice
Protocol: PD0332991: For HSPC proliferation experiments, mice received daily oral gavage with PD0332991 150 mg/kg for 2 days with 1 mg BrdU intraperitoneal injection (i.p.) every 6 hours for 24 hours prior to sacrifice.
2BrIC: For HSPC proliferation experiments, mice were treated with two doses of 2-bromo-12,13-dihydro-5H-indolo[2,3-a]pyrrolo[3,4-c]carbazole-5,7(6H)-dione (2BrIC) 300 mg/kg oral gavage or vehicle control. 2BrIC was solubilized for oral gavage using formulation #6 from the Hot Rod formulation kit (Pharmatek, Inc., San Diego, Calif., United States of America). 2BrIC was administered 2 hours prior to BrdU administration and readministered at the time of the BrdU 1 mg i.p. injection. After BrdU+/−2BrIC treatment for the indicated times, the mice were sacrificed and bone marrow harvested for immunophenotyping, and BrdU analysis.
Bone marrow (BM) was harvested from femurs of mice, pooled, and centrifuged to purify bone marrow mononuclear cells (BM-MNCs). Cells were then incubated for 5 minutes in ACK buffer to lyse red blood cells. All antibodies were from BD Pharmingen (San Jose, Calif., United States of America) unless otherwise indicated. Purified BM-MNCs were incubated with mouse lineage mixture biotin conjugated antibody, followed by streptavidin-FITC. Cells were then stained with Sca-1-PE-Cy7 and c-kit-APC-alexa750 antibodies. Cell viability was assessed using LIVE/DEAD Aqua Dead Cell Stain Kit (Invitrogen Corporation, Carlsbad, Calif., United States of America). For BrdU incorporation assay, the cells were fixed, permeablized, and stained with an APC BrdU Flow Kit according to the manufacturer's instruction. In all experiments, PE-Cy7, FITC, APC-alexa750, and the Aqua Dead cell stain isotype controls were included as appropriate. Flow cytometric analysis was performed using a CyAn ADP (Dako, Glostrup, Denmark). For each sample, a minimum of 500,000 cells was analyzed and the data were analyzed using FlowJo software (Tree Star, Ashland, Oreg., United States of America).

CC(=O)c1c(C)c2cnc(Nc3ccc(N4CCNCC4)cn3)nc2n(C2CCCC2)c1=O [PD0332991, 6-acetyl-8-cyclopentyl-5-methyl-2-(5-piperazin-1-yl-pyridin-2-ylamino)-8H-pyrido-[2,3-d]-pyrimidin-7-one]
cell cycle effect [1]: strong, clean and reversible G1-arrest | cell cycle effect [2]: strong, clean and reversible G1-arrest | protection of blood cell counts (platelets, hemoglobin, lymphocytes, granulocytes) from doxorubicin [3]: provides quadrilineage protection | protection of blood cell counts (platelets, hemoglobin, lymphocytes, granulocytes) from doxorubicin ([3]; listed as PD332991): protected | protection of blood cell counts (platelets, hemoglobin, lymphocytes, granulocytes) from carboplatin [3]: provides quadrilineage protection | protection of blood cell counts (platelets, hemoglobin, lymphocytes, granulocytes) from carboplatin ([3]; listed as PD332991): protected | protection from chemotherapy-induced cytotoxicity (cell proliferation assays) [4]: significant protection | erythroid, platelet and myeloid (monocyte+granulocyte) lineages upon administration [5]: decrease | protection from chemotherapy-induced cytotoxicity (cell proliferation assays) [6]: significant protection | protection from chemotherapy-induced cytotoxicity (cell proliferation assays) [7]: not | erythroid, platelet and myeloid (monocyte+granulocyte) lineages upon administration (tumor bearing mice): decrease | protection from doxorubicin-, carboplatin- or etoposide-induced DNA damage (gamma-H2AX) [8]: inability | protection from doxorubicin-, carboplatin- or etoposide-induced DNA damage (gamma-H2AX) [9]: attenuated γH2AX staining | protection from doxorubicin-, carboplatin- or etoposide-induced DNA damage (gamma-H2AX) ([9]; listed as PD 0332991): ability | protection from doxorubicin-, carboplatin- or etoposide-induced DNA damage (gamma-H2AX) ([10]; then 8 hours Carbo, Etop or Dox): attenuated γH2AX staining | protection from carboplatin-induced DNA damage (gamma-H2AX positive cells) ([10]; then 8 hours carboplatin): ability | protection from doxorubicin-induced DNA damage (gamma-H2AX positive cells) ([10]; then 8 hours doxorubicin): ability | protection from etoposide-induced DNA damage (gamma-H2AX positive cells) ([10]; then 8 hours etoposide): ability | proliferation of granulocyte-monocyte progenitors (GMP) and megakaryocyte-erythroid progenitors (MEP) ([11]; 150 mg/kg daily oral gavage, 48 hours): weaker effects | proliferation in early HSPC populations (BrdU incorporation and Ki67 expression) ([11]; 48 hours treatment, 24 hour exposure to BrdU): clearly reduces proliferation | frequency of HSC doubly positive for expression of Ki67 and BrdU ([11]; HSC (Lin−Kit+Sca1+CD48−CD150+), 150 mg/kg daily oral gavage, 48 hours, C57BII/6 mice): significantly decreased | proliferation of oligopotent progenitors (Ki67, BrdU) ([11]; Lin−Kit+Sca1−, 150 mg/kg daily oral gavage, 48 hours): modest inhibition of proliferation | proliferation of multipotent progenitor cell compartment (Ki67, BrdU) ([11]; MPP (Lin−Kit+Sca1+CD48−CD150−), 150 mg/kg daily oral gavage, 48 hours): more pronounced inhibition of proliferation | proliferation of Lin−Kit−Sca1− and Lin+ cells ([11]; more fully differentiated cells, 150 mg/kg daily oral gavage, 48 hours): no change in proliferation
